Experimental data published in patent US20160279187A1, “CALPAIN INHIBITORS FOR IBD AND COLORECTAL CANCER TREATMENT” (UNIVERSITY OF HAWAII, priority 2013, published 2016).
Where a SMILES comes first, the peptide text is derived from it. The star is where a group is joined. Cbz = O=C(OCc1ccccc1)*; CH2F = FC*

System: IκB / NFκB in TNFα primed macrophages
Assay: IκB and nuclear NFκB western blot in activated macrophages
Type: cell-based, mouse
Details: vs DMSO
Method: Bone marrow derived macrophages (BMDM) were prepared as previously described by methods known to those skilled in the art. On day 5 of culture, 2×10^6 BMDM were seeded in 6-well plates and the following day were primed for 18 h with TNFα (20 ng/mL), followed by 1 h stimulation with E. faecalis (1 μg/mL; ATCC). Stimulation with E. faecalis was conducted in the presence of the zLLY-CH2F calpain-2 inhibitor (20 μg/mL) or DMSO as a control. Media was removed from treated BMDM, centrifuged at 300×g for 5 min and supernatent analyzed using the Cytometric Bead Array Mouse Inflammation Kit (BD Biosciences, San Jose, Calif.). Cytokine data were analyzed using Flowjo software (Ashland, Oreg.) and GraphPad Prism version 4.0 (GraphPad, La Jolla, Calif.). Cell pellets were lysed and analyzed for IκB and NFκB by Western blot as previously described (Miyazaki, T. et al. Journal of Atherosclerosis and Thrombosis 20, 228-237, 2013). […] Each day 4 wells were quantified using Celltiter MTS reagent (Promega) and the resulting signal was used to generate a proliferation curve. Calpain activity was measured using a Calpain activity assay kit (BioVision, Inc., Milpitas, Calif.) as previously described. Colons were harvested on day 4 and calpain activity measured. […] Supernatants were evaluated for a panel of cytokines including IFNγ, TNFα, IL-6, and MCP-1, IL-10, and IL-12. […]

Q: What does the source list for `CC(C)C[C@H](NC(=O)OCc1ccccc1)C(=O)N[C@@H](CC(C)C)C(=O)N[C@@H](Cc1ccc(O)cc1)C(=O)CF` [zLLY-CH2F, Z-LLY-CH2F] (Cbz-Leu-Leu-Tyr-CH2F)?
A: IκB degradation: decreased; NFκB localization to the nucleus: decreased
